Tested on: Sarcocystis neurona strain SN3
Experiment: Microtiter Monolayer Disruption Assay (MMDA), inhibition of merozoite-induced cell destruction (CPE)
Assay type: cell-based
Conditions: S. neurona merozoites 50,000/well on BT cell monolayers, compound added 2 hours after infection, crystal violet readout, read-out: Percent Inhibition of Cell Destruction
Experimental: In order to determine the scope of protection provided by praziquantel, in vitro testing was conducted. Sarcocystis neurona was evaluated for its sensitivity to this compound. Strain SN3 of Sarcocystis neurona was used.
Bovine turbinate (BT) cells were used for all in vitro tests. Cells were grown to confluency in 25 cm^2 flasks in RMPI 1640 media supplemented with 10% v/v fetal bovine serum (FBS), 100 Units of penicillin (g/mL), […] and 5×10^−2 mM of 2-mercaptoethanol. After cell confluence was obtained, cells were maintained in the same media with reduced FBS (2% v/v). Cell cultures were incubated at 37 C. in a humidified atmosphere containing 5% carbon dioxide and 95% air.
For growth of the parasite, BT cell monolayers were infected with parasites and examined with an inverted microscope for the development of lesions (cytopathic effect, “CPE”) or the presence of many extracellular merozoites. Once lesions were observed, or many extracellular parasites were present, the monolayer was scraped with the tip of a 5 mL pipette and 1 to 3 drops of the merozoite-containing fluid was transferred to two flasks of fresh BT cells. […]
This assay was used to determine if the parasites or compound were toxic for BT cells. […] Each well was visually monitored daily and the assay was stopped when 90-100% of the untreated merozoite infected cells had lysed (90-100% CPE). […]

Which results are given for O=C(C1CCCCC1)N1CC(=O)N2CCc3ccccc3C2C1 (centres unmarked) [Praziquantel, praziquantel]?
inhibition at 10 µg/mL (10 μg/mL): 51%; inhibition at 20 µg/mL (20 μg/mL): 69%

From patent US20020143018A1 (priority 2000, published 2002)
